Results taken from patent US5830994A, “Peptide derivatives of alpha-MSH and their application” (Institut Europeen De Biologie Cellulaire, priority 1993, dated 1998).
“And” between values parts separate entries of the source, which are not always exact repeats. Equal values may be shown once. Read-outs that look alike come from different tables or passages of the source.

What was measured:
[1] = tested on: PGE2 production by MRC5 fibroblasts stimulated by IL1; assay: PGE2 production by fibroblasts stimulated by IL1 (RIA); type: cell-based, human; conditions: for % inhibition (PGE2) / PGE2: IL1:5 ng
Experimental: 2-1 Culture of embryonic pulmonary fibroplasts [sic] of human origin:
We chose to use the strain ATCC MRC5 maintained in the laboratory continuously and already tested by Cannon et al. (J. Immunol., 1986).
After subculturing, the fibroplasts [sic] are cultured in microwells (24-well plate of 2 cm2, Falcon). The innoculum is 30 000 cells per well; the nutrient medium used is composed of RPMI 1640 (90%) and of complement-free fetal calf serum (FCS, 10%). The medium is changed every two days until the cells become confluent.
The monocell layers thus obtained are washed and preincubated for 24 hours in fresh medium containing only 1% of FCS. […] After incubating for 20 minutes in the presence of these compounds, human recombinant IL1 (Tebu, France) at a concentration of 5, 2.5 or 0.5 ng/ml of medium is placed in contact with cells for 18 hours.
At the end of this incubation, the supernatants are collected and frozen at -80° C. until the analysis is carried out. The monocell layers are fixed with methanol.
The RIA assay is carried out according to the method described by Dray et al. (Europ. J. Invest. 1975). 3 series of experiments, in duplicate, were carried out for each concentration of product studied and for the controls. The results are expressed in pg/μg of DNA. The inhibitory effect is expressed in percentage relative to the controls.
In order to avoid any possible error due to the counting by optical microscopy, the DNA was assayed by a fluorimetric method according to the procedure described by Brunk et al. (Analytical Biochem., 1979).

[2] = tested on: embryonic cells (melanoblasts, neuroblasts, myoblasts, epidermal cells, fibroblasts, mesenchymatous cells); type: cell-based, Triton embryo and Axolotl embryo
Experimental: Qualitative and quantitative analysis of the effects of PIV on melanocyte differentiation in in vitro culture. Sample to be analyzed--compound 4=PIV Embryonic cells isolated in in vitro culture in a defined, purely saline medium (standard culture conditions: 2 ml of medium/culture). The embryonic territory is collected (from Triton embryo and from Axolotl embryo) from the first stage of melanogenesis, immediately after melanocyte induction. At this early stage of embryonic development, the neural swelling, which has just become individualized, contains all the melanoblastic precursors. The culture of the cells of the neural swelling and of the underlying mesoderm makes it possible to coculture (under completely identical conditions) the melanoblasts with various other cell precursors belonging to various categories: neuroblasts, myoblasts, epidermal cells, fibroplasts [sic], mesenchymatous cells. This allows a comparative kinetic study, on a living material, of the effects of PIV on the melanocytes and various other cell types. Duration of the culture (primary culture): 2 to 3 weeks at 20° C. The cell differentiation appears morphologically from the 3rd day and is practically complete at 8-10 days of culture. A series of PIV concentrations was analyzed: 0.01 μg/ml; 0.1 μg/ml; 1 μg/ml; and 10 μg/ml The following 2 doses were therefore selected for this work: 0.1 and 1 μg/ml. 1 single treatment during the innoculation of cultured cells. After their attachment (3 days at 20° C.), the medium is replaced with fresh medium without the Peptide PIV 1 treatment during the innoculation and a 2nd treatment during the change of medium. We developed two melanin assays: by HPLC with electrochemical detection by spectrophotometry (by adaptation of the method of TOMITA et al. 1990) at 470 nm. The development of these assays was carried out using standard solutions of melanin (Sigma, ref. M 8631) in order to define the comparative sensitivity and the minimum level of detection by either of the methods. The μg is the minimum level which can be assayed by spectrophotometry; the ng is the lower level which can be assayed by HPLC. It should however, be observed that these two techniques, especially the spectrophotometric assay, can be used since, for our cell cultures, 15 embryonic explants associated in culture are sufficient to allow quantification (by spectrophotometry).

[3] = Protection of treated animals given a lethal dose of LPS; type: in vivo, mice

[(DL) Lip] His - D.homoPhe - Arg - Trp - NH2 [PIV]
% inhibition (PGE2) ([1]; 10^-4 M): 60% | PGE2 ([1]; 10^-4 M): 2964 ± 184 pg/mg of DNA | % inhibition (PGE2) ([1]; 10^-5 M): 38% | PGE2 ([1]; 10^-5 M): 4580 ± 230 pg/mg of DNA | % inhibition (PGE2) ([1]; 10^-6 M): 34% | PGE2 ([1]; 10^-6 M): 4900 ± 340 pg/mg of DNA | % inhibition (PGE2) ([1]; 10^-7 M): 17% | PGE2 ([1]; 10^-7 M): 6150 ± 365 pg/mg of DNA | % inhibition (PGE2) ([1]; 10^-8 M): 17% | PGE2 ([1]; 10^-8 M): 6142 ± 255 pg/mg of DNA | % inhibition (PGE2) ([1]; 10^-9 M): 32% | PGE2 ([1]; 10^-9 M): 5047 ± 279 pg/mg of DNA | inhibitory action on IL1-stimulated PGE2 production (in words) ([1]; overall): possess an inhibitory power | cell proliferation of epidermis cells, mesenchymatous cells, fibroblasts (in words) [2]: no specific cell proliferation | cytotoxic effect on epidermis cells, mesenchymatous cells, fibroblasts (in words) [2]: no cytotoxic effect | differentiation and behaviour in vitro of epidermis cells, mesenchymatous cells, fibroblasts (in words) [2]: no retardation or accelaration | number of neurons and size of the cell bodies, neuroblasts (in words) [2]: no specific stimulating effect | size and spreading of epidermis cells, mesenchymatous cells, fibroblasts (in words) [2]: no stimulating effect | effect on melanocyte differentiation, dose/response trial (in words) ([2]; 0.01 μg/ml): no effect | effect on melanocyte differentiation, dose/response trial (in words) ([2]; 1 μg/ml): optimal effect | effect on melanogenesis (in words) ([2]; 0.1 and 1 μg/ml): Stimulating effect | Stimulation (melanin, treated vs control cultures) ([2]; 1st to 4th experiment): 2.5 × and 2.3 × and 1.5 × | appearance of phenotypic differentiation of the melanocytes (in words) ([2]; treated cultures, from the 2nd day after innoculation, vs control cultures): more rapidly | number of melanocytes (in words) ([2]; treated vs control cultures): increase | Protection of treated animals (mortality) [3]: highly significant retarded mortality rate
